Values of other authors in US10863739B2 (AgroFresh Inc., priority 2015, dated 2020).

Conditions: gas

SMILES: CC1=CC1 [1-MCP, 1-Methylcyclopropene]
- flammable above a concentration: > 13,300 ppm
